Data on 38 compounds can be found in ChEMBL document CHEMBL5236565, “Design, synthesis, and biological evaluation of novel 2'-methyl-2'-fluoro-6-methyl-7-alkynyl-7-deazapurine nucleoside analogs as anti-Zika virus agents” (Eur J Med Chem, 2022).

Assay [1] deals with Zika virus. Put plainly: Antiviral activity against ZIKV infected in human A549 cells at 50 uM by microtiter assay relative to control. The class given is functional.
The next assay deals with A549. The experiment in a line: Cytotoxicity against human A549 cells assessed as cell growth inhibition measured after 24 hrs by MTT assay. Type of assay: functional.
The test system of assay [2] is Zika virus. The experiment in a line: Antiviral activity against ZIKV ZG-01 infected in human A549 cells assessed as reduction in viral induced cytopathic effect by measuring reduction in PFU measured after 4 days by neutral red staining based plaque assay. The class given is functional, organism-based. Conditions: ZG-01, A549, 96 h; for EC90: time 4 day. A general note: Protection from cytopathic effect is a common read-out in antiviral testing.

The target in another assay is NS5 (Zika virus, UniProt A0A143MHK7). The experiment in a line: Binding affinity to N-terminal His-tagged recombinant ZIKV ZG-01 RdRp (272 to 903 residues) expressed in Escherichia coli rosetta by surface plasmon resonance assay. (Surface plasmon resonance follows binding to a sensor surface in real time, without labels.)
Chain of NS5 (A0A143MHK7 whole entry, the tested form may be a part): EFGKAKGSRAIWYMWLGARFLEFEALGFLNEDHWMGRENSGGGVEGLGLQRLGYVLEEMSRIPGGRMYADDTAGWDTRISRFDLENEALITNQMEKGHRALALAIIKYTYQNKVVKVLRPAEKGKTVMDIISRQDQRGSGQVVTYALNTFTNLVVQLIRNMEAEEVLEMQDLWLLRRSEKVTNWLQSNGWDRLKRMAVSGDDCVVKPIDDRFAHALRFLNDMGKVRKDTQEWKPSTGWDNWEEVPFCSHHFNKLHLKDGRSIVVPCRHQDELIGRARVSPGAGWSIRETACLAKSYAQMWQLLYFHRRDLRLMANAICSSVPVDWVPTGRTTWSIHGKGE

One may read the CC50 as the concentration giving 50% cytotoxicity. The EC50 is the concentration giving half of the maximal effect. What is called EC90 is the concentration needed for an effect of 90%. As for `Cc1ncnc2c1c(C#Cc1cccs1)cn2[C@@H]1O[C@H](CO)[C@@H](O)[C@@]1(C)F`, the Activity in the assay with Zika virus [1] is above 90%. In addition, in the assay with A549, the CC50 is above 50 µM. In the assay on Zika virus [2], the EC50 stood at 35.4 µM and the EC90 worked out at 50 µM.
Consider `Cc1cccnc1C#Cc1cn([C@@H]2O[C@H](CO)[C@@H](O)[C@@]2(C)F)c2ncnc(C)c12`, for which the Activity in the assay with Zika virus [1] was below 10%.
The compound `Cc1ncnc2c1c(C#Cc1cccc(Br)c1)cn2[C@@H]1O[C@H](CO)[C@@H](O)[C@@]1(C)F` yielded an Activity with Zika virus [1] above 90%. The CC50 in the assay on A549 is above 50 µM. In the assay on Zika virus [2], the EC50 is 4.5 µM and the EC90 was found to be 15.4 µM.
Consider `Cc1ccccc1C#Cc1cn([C@@H]2O[C@H](CO)[C@@H](O)[C@@]2(C)F)c2ncnc(C)c12`, for which the Activity with Zika virus [1] is given as above 90%. Further, the CC50 in the assay with A549 is above 50 µM. For the same compound, in the assay on Zika virus [2], the EC50 came to 8.5 µM and the EC90 turned out to be 25.7 µM.
The like results for `Cc1ncnc2c1c(C#Cc1ccccc1Br)cn2[C@@H]1O[C@H](CO)[C@@H](O)[C@@]1(C)F` were, in that order, above 90%, above 50 µM, 9.6 µM and 19.7 µM.
`Cc1ncnc2c1c(C1CC1c1ccccc1)cn2[C@@H]1O[C@H](CO)[C@@H](O)[C@@]1(C)F` (some centres undefined) gave an Activity in the assay with Zika virus [1] below 10%.
As for `Cc1ncnc2c1c(C#Cc1ccc(Br)cc1F)cn2[C@@H]1O[C@H](CO)[C@@H](O)[C@@]1(C)F`, the CC50 in the assay on A549 was above 50 µM. For the same compound, in the assay with Zika virus [2], the EC50 amounted to 3 µM and the EC90 worked out at 7.9 µM.
`Cc1ccc(C#Cc2cn([C@@H]3O[C@H](CO)[C@@H](O)[C@@]3(C)F)c3ncnc(C)c23)s1` had an Activity in the assay on Zika virus [1] of 43.9%.
In general, Kd refers to the equilibrium constant for the complex coming apart. `C#C[C@@]1(O)[C@H](O)[C@@H](CO)O[C@H]1n1ccc2c(N)ncnc21`: the CC50 in the assay with A549 was above 50 µM. In the assay with Zika virus [2], the EC50 was determined as 14 µM and the 90% effect concentration (EC90) came out at 30.9 µM. Moreover, on NS5, the Kd was found to be 3.43 µM.
`Cc1ccnc(C#Cc2cn([C@@H]3O[C@H](CO)[C@@H](O)[C@@]3(C)F)c3ncnc(C)c23)c1` gave an Activity in the assay on Zika virus [1] below 10%.
`Cc1ncnc2c1c(-c1ccccc1)cn2[C@@H]1O[C@H](CO)[C@@H](O)[C@@]1(C)F` registered an Activity in the assay with Zika virus [1] below 10%.
`Cc1cccc(C#Cc2cn([C@@H]3O[C@H](CO)[C@@H](O)[C@@]3(C)F)c3ncnc(C)c23)n1`: the Activity in the assay with Zika virus [1] is listed as below 10%.
For the compound `Cc1ncnc2c1c(C#Cc1ccc(Br)cc1)cn2[C@@H]1O[C@H](CO)[C@@H](O)[C@@]1(C)F`, the Activity in the assay on Zika virus [1] is reported as above 90%. Further, the CC50 in the assay with A549 is above 50 µM. Moreover, in the assay on Zika virus [2], the EC50 worked out at 4.4 µM and the EC90 was 14.7 µM.
Regarding `COc1ccccc1C#Cc1cn([C@@H]2O[C@H](CO)[C@@H](O)[C@@]2(C)F)c2ncnc(C)c12`, in the assay with Zika virus [1], the Activity is above 90%. Further, the CC50 with A549 was above 50 µM. In addition, in the assay on Zika virus [2], the EC50 is 40.3 µM and the EC90 is above 50 µM.
In the assay on Zika virus [1], `COc1cccc(C#Cc2cn([C@@H]3O[C@H](CO)[C@@H](O)[C@@]3(C)F)c3ncnc(C)c23)c1` displayed an Activity above 90%. For the same compound, the CC50 with A549 is above 50 µM. Moreover, in the assay with Zika virus [2], the EC50 was 14.8 µM and the EC90 came to 40.4 µM.
`Cc1ccc(C#Cc2cn([C@@H]3O[C@H](CO)[C@@H](O)[C@@]3(C)F)c3ncnc(C)c23)cc1`: the Activity in the assay on Zika virus [1] is above 90%. For the same compound, in the assay with A549, the CC50 is above 50 µM. Moreover, in the assay on Zika virus [2], the EC50 stood at 11.8 µM and the EC90 was 24.2 µM.
`Cc1ncnc2c1c(C#CC1CC1)cn2[C@@H]1O[C@H](CO)[C@@H](O)[C@@]1(C)F` showed an Activity with Zika virus [1] below 10%.
Same read-out and setting: with `CC#Cc1cn([C@@H]2O[C@H](CO)[C@@H](O)[C@@]2(C)F)c2ncnc(C)c12` the figure was below 10%.
For the compound `COc1ccc(C#Cc2cn([C@@H]3O[C@H](CO)[C@@H](O)[C@@]3(C)F)c3ncnc(C)c23)cc1`, in the assay with Zika virus [1], the Activity is on record as above 90%. The CC50 with A549 is above 50 µM. For the same compound, in the assay on Zika virus [2], the EC50 stood at 11.8 µM and the EC90 was 40.7 µM.
Compound `C#Cc1cn([C@@H]2O[C@H](CO)[C@@H](O)[C@@]2(C)F)c2ncnc(C)c12` displayed an Activity with Zika virus [1] below 10%.
As to `Cc1ccsc1C#Cc1cn([C@@H]2O[C@H](CO)[C@@H](O)[C@@]2(C)F)c2ncnc(C)c12`, the Activity in the assay with Zika virus [1] turned out to be 40.2%.
`Cc1ncnc2c1c(C#Cc1cccc(F)c1)cn2[C@@H]1O[C@H](CO)[C@@H](O)[C@@]1(C)F`: the Activity with Zika virus [1] was below 10%.
Consider `Cc1ncnc2c1c(C#Cc1nccs1)cn2[C@@H]1O[C@H](CO)[C@@H](O)[C@@]1(C)F`, for which, in the assay with Zika virus [1], the Activity is reported as below 10%.
For `COCc1ccccc1C#Cc1cn([C@@H]2O[C@H](CO)[C@@H](O)[C@@]2(C)F)c2ncnc(C)c12`, the Activity in the assay on Zika virus [1] was above 90%. For the same compound, in the assay with A549, the CC50 is above 50 µM. Also, in the assay on Zika virus [2], the EC50 is 13.5 µM and the EC90 is above 50 µM.
Consider `CCOC(=O)c1ccc(C#Cc2cn([C@@H]3O[C@H](CO)[C@@H](O)[C@@]3(C)F)c3ncnc(C)c23)s1`, for which the Activity with Zika virus [1] is listed as above 90%. Also, the CC50 in the assay with A549 was above 50 µM. Also, in the assay with Zika virus [2], the EC50 came to 39.8 µM and the EC90 is above 50 µM.
Take `Cc1cccc(C#Cc2cn([C@@H]3O[C@H](CO)[C@@H](O)[C@@]3(C)F)c3ncnc(C)c23)c1`: the Activity in the assay on Zika virus [1] is above 90%. In addition, the CC50 with A549 is above 50 µM. Also, in the assay on Zika virus [2], the concentration giving a half-maximal response (EC50) is 7.1 µM and the EC90 came out at 19.1 µM.
Take `COc1cccc(C#Cc2cn([C@@H]3O[C@H](CO)[C@@H](O)[C@@]3(C)F)c3ncnc(C)c23)n1`: the Activity with Zika virus [1] is reported as below 10%.
Compound `Cc1ncnc2c1c(/C=C/c1ccccc1)cn2[C@@H]1O[C@H](CO)[C@@H](O)[C@@]1(C)F` registered an Activity in the assay with Zika virus [1] below 10%.
Turning to `Cc1ncnc2c1c(C#Cc1ccccn1)cn2[C@@H]1O[C@H](CO)[C@@H](O)[C@@]1(C)F`, the Activity in the assay on Zika virus [1] is 18.8%.
Still for that read-out and setting: with `Cc1ncnc2c1c(-n1cc(-c3ccccc3)nn1)cn2[C@@H]1O[C@H](CO)[C@@H](O)[C@@]1(C)F` the figure was below 10%.
Same read-out and setting: as for `Cc1ncnc2c1c(-c1ccc(-c3ccccc3)cc1)cn2[C@@H]1O[C@H](CO)[C@@H](O)[C@@]1(C)F`, the figure is 29.9%.
`Cc1ncnc2c1c(C#Cc1ccccc1)cn2[C@@H]1O[C@H](CO)[C@@H](O)[C@@]1(C)F`: the CC50 in the assay with A549 is above 50 µM. For the same compound, in the assay on Zika virus [2], the EC50 came to 13.8 µM and the EC90 stood at 33.6 µM.
In the case of `Cc1ncnc2c1c(C#Cc1ccc(F)cc1)cn2[C@@H]1O[C@H](CO)[C@@H](O)[C@@]1(C)F`, the Activity in the assay with Zika virus [1] was 37.5%.
`Cc1ncnc2c1c(C#CC(C)(C)C)cn2[C@@H]1O[C@H](CO)[C@@H](O)[C@@]1(C)F`: the Activity with Zika virus [1] is on record as 22.4%.
Same read-out and setting: with `Cc1ncnc2c1c(C#Cc1ncccn1)cn2[C@@H]1O[C@H](CO)[C@@H](O)[C@@]1(C)F` the figure was below 10%.
As to `Cc1ncnc2c1c(C#Cc1ccccc1F)cn2[C@@H]1O[C@H](CO)[C@@H](O)[C@@]1(C)F`, the Activity with Zika virus [1] is on record as above 90%. Also, the CC50 in the assay on A549 is above 50 µM. In addition, in the assay with Zika virus [2], the EC50 stood at 4.9 µM and the EC90 was determined as 19.7 µM.
Consider `Cc1ncnc2c1c(C#Cc1ccccc1C(F)(F)F)cn2[C@@H]1O[C@H](CO)[C@@H](O)[C@@]1(C)F`, for which the Activity in the assay on Zika virus [1] turned out to be 34.4%.
`Cc1ncnc2c1c(C#Cc1cccnc1)cn2[C@@H]1O[C@H](CO)[C@@H](O)[C@@]1(C)F` returned an Activity in the assay on Zika virus [1] below 10%.
